≈ marks a conversion by molar mass, not a printed value.
System: ATCC13883 strain (Klebsiella pneumoniae)
Assay: Checkerboard antibacterial synergistic activity test with polymyxin E (FIC)
Type: cell-based
Set-up: key: FIC≤0.5 synergy; 0.5–1 additive; 1–2 indifferent; ≥2 antagonism
Conditions: combined with polymyxin E
Method in brief: (§1)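 Polymyxin E was diluted in MH broth to 16–0.015 μg/ml and the test compound to 256–4 μg/ml (two-fold series, pre-mixing concentrations), combined checkerboard-style in 96-well plates with bacterial suspension and blank controls, and incubated at 37° C. for 16 h. FIC ≤0.5 was scored synergistic, >0.5 to <1 additive, 1–2 indifferent, ≥2 antagonistic.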

Row | Structure (SMILES) | Synergistic activity (FIC value) ATCC13883
1 | NC(N)=Nc1nc(-c2cccc(Oc3ccccc3Cl)c2)cs1 [Compound I-94] | 0.19
2 | CSc1cc2cccc(C)n2c1-c1nc(N=C(N)N)sc1Cl [Compound I-127] | 0.09
3 | NC(N)=Nc1nc(-c2ccc(O)c(CO)c2)cs1 [Compound I-121] | 1.25
4 | NC(N)=Nc1nc(-c2cccc(N3CCOCC3)c2)cs1 [Compound I-120] | 0.28
5 | NC(N)=Nc1nc(-c2ccccc2Cl)c[nH]1 [Compound I-36] | 0.31
6 | O=C(NC1CC1)c1ccc(-c2nccs2)c(-c2nc(N=C3NCCCN3)sc2Br)c1 [Compound I-141] | 1.25
7 | Cc1oc(N=C(N)N)nc1-c1cccc(C#N)c1-c1cccs1 [Compound I-79] | 0.52
8 | CSc1cc2ccc(C)cn2c1-c1nc(N=C(N)N)sc1C [Compound I-126] | 0.13
9 | NC(N)=Nc1nc(-c2c(S(N)(=O)=O)csc2Cl)cs1 [Compound I-118] | 0.19
10 | NC(N)=Nc1nc(-c2ccccc2OCc2ccccc2)cs1 [Compound I-7] | 0.51

System: ATCC19606 strain (Acinetobacter baumannii)
Assay: as above
Type: cell-based
Set-up: key: FIC≤0.5 synergy; 0.5–1 additive; 1–2 indifferent; ≥2 antagonism
Conditions: combined with polymyxin E
Method in brief: as §1

Row | Structure (SMILES) | Synergistic activity (FIC value) ATCC19606
11 | NC(N)=Nc1nc(-c2cccc(Oc3ccccc3Cl)c2)cs1 [Compound I-94] | 0.04
12 | CSc1cc2cccc(C)n2c1-c1nc(N=C(N)N)sc1Cl [Compound I-127] | 0.31
13 | NC(N)=Nc1nc(-c2ccc(O)c(CO)c2)cs1 [Compound I-121] | 1.25
14 | NC(N)=Nc1nc(-c2cccc(N3CCOCC3)c2)cs1 [Compound I-120] | 1.25
15 | NC(N)=Nc1nc(-c2ccccc2Cl)c[nH]1 [Compound I-36] | 0.25
16 | O=C(NC1CC1)c1ccc(-c2nccs2)c(-c2nc(N=C3NCCCN3)sc2Br)c1 [Compound I-141] | 0.51
17 | Cc1oc(N=C(N)N)nc1-c1cccc(C#N)c1-c1cccs1 [Compound I-79] | 0.52
18 | CSc1cc2ccc(C)cn2c1-c1nc(N=C(N)N)sc1C [Compound I-126] | 0.04
19 | NC(N)=Nc1nc(-c2c(S(N)(=O)=O)csc2Cl)cs1 [Compound I-118] | 1.25
20 | NC(N)=Nc1nc(-c2ccccc2OCc2ccccc2)cs1 [Compound I-7] | 0.16

System: ATCC25922 strain (Escherichia coli)
Assay: as above
Type: cell-based
Set-up: key: FIC≤0.5 synergy; 0.5–1 additive; 1–2 indifferent; ≥2 antagonism
Conditions: combined with polymyxin E
Method in brief: as §1

Row | Structure (SMILES) | Synergistic activity (FIC value) ATCC25922
21 | NC(N)=Nc1nc(-c2cccc(Oc3ccccc3Cl)c2)cs1 [Compound I-94] | 0.26
22 | CSc1cc2cccc(C)n2c1-c1nc(N=C(N)N)sc1Cl [Compound I-127] | 0.14
23 | NC(N)=Nc1nc(-c2ccc(O)c(CO)c2)cs1 [Compound I-121] | 0.56
24 | NC(N)=Nc1nc(-c2cccc(N3CCOCC3)c2)cs1 [Compound I-120] | 0.75
25 | NC(N)=Nc1nc(-c2ccccc2Cl)c[nH]1 [Compound I-36] | 0.56
26 | O=C(NC1CC1)c1ccc(-c2nccs2)c(-c2nc(N=C3NCCCN3)sc2Br)c1 [Compound I-141] | 1.25
27 | Cc1oc(N=C(N)N)nc1-c1cccc(C#N)c1-c1cccs1 [Compound I-79] | 0.63
28 | CSc1cc2ccc(C)cn2c1-c1nc(N=C(N)N)sc1C [Compound I-126] | 0.2
29 | NC(N)=Nc1nc(-c2c(S(N)(=O)=O)csc2Cl)cs1 [Compound I-118] | 1.25
30 | NC(N)=Nc1nc(-c2ccccc2OCc2ccccc2)cs1 [Compound I-7] | 0.51

System: ATCC9027 strain (Pseudomonas aeruginosa)
Assay: as above
Type: cell-based
Set-up: key: FIC≤0.5 synergy; 0.5–1 additive; 1–2 indifferent; ≥2 antagonism
Conditions: combined with polymyxin E
Method in brief: as §1

Row | Structure (SMILES) | Synergistic activity (FIC value) ATCC9027
31 | NC(N)=Nc1nc(-c2cccc(Oc3ccccc3Cl)c2)cs1 [Compound I-94] | 0.52
32 | CSc1cc2cccc(C)n2c1-c1nc(N=C(N)N)sc1Cl [Compound I-127] | 0.06
33 | NC(N)=Nc1nc(-c2ccc(O)c(CO)c2)cs1 [Compound I-121] | 1.25
34 | NC(N)=Nc1nc(-c2cccc(N3CCOCC3)c2)cs1 [Compound I-120] | 0.25
35 | NC(N)=Nc1nc(-c2ccccc2Cl)c[nH]1 [Compound I-36] | 0.5
36 | O=C(NC1CC1)c1ccc(-c2nccs2)c(-c2nc(N=C3NCCCN3)sc2Br)c1 [Compound I-141] | 0.52
37 | Cc1oc(N=C(N)N)nc1-c1cccc(C#N)c1-c1cccs1 [Compound I-79] | 1.25
38 | CSc1cc2ccc(C)cn2c1-c1nc(N=C(N)N)sc1C [Compound I-126] | 0.28
39 | NC(N)=Nc1nc(-c2c(S(N)(=O)=O)csc2Cl)cs1 [Compound I-118] | 1.25
40 | NC(N)=Nc1nc(-c2ccccc2OCc2ccccc2)cs1 [Compound I-7] | 0.75

System: ATCC13883 strain (Klebsiella pneumoniae)
Assay: Broth microdilution, antibacterial activity of the compound used alone
Type: cell-based
Conditions: not given
Excerpt: (§2) The broth microdilution method was used to test the antibacterial effects of the compounds of the present invention against various Gram-negative bacterial strains when used alone.

Row | Structure (SMILES) | Antibacterial activity of the compound of Formula I, ATCC13883
41 | NC(N)=Nc1nc(-c2cccc(Oc3ccccc3Cl)c2)cs1 [Compound I-94] | 256 µg/mL
42 | CSc1cc2cccc(C)n2c1-c1nc(N=C(N)N)sc1Cl [Compound I-127] | 128 µg/mL
43 | NC(N)=Nc1nc(-c2cccc(N3CCOCC3)c2)cs1 [Compound I-120] | 256 µg/mL
44 | NC(N)=Nc1nc(-c2ccccc2Cl)c[nH]1 [Compound I-36] | 128 µg/mL
45 | O=C(NC1CC1)c1ccc(-c2nccs2)c(-c2nc(N=C3NCCCN3)sc2Br)c1 [Compound I-141] | 256 µg/mL
46 | Cc1oc(N=C(N)N)nc1-c1cccc(C#N)c1-c1cccs1 [Compound I-79] | 256 µg/mL
47 | CSc1cc2ccc(C)cn2c1-c1nc(N=C(N)N)sc1C [Compound I-126] | 256 µg/mL
48 | NC(N)=Nc1nc(-c2ccccc2OCc2ccccc2)cs1 [Compound I-7] | 256 µg/mL

Same assay, conditions: read-out: Antibacterial activity of the compound of Formula I, ATCC13883

Row | MIC | Structure (SMILES)
49 | 256 µg/mL (≈ 969 µM) | NC(N)=Nc1nc(-c2ccc(O)c(CO)c2)cs1 [Compound I-121]
50 | 256 µg/mL (≈ 758 µM) | NC(N)=Nc1nc(-c2c(S(N)(=O)=O)csc2Cl)cs1 [Compound I-118]

System: ATCC19606 strain (Acinetobacter baumannii)
Assay: as above
Type: cell-based
Conditions: not given
Excerpt: as §2

Row | Structure (SMILES) | Antibacterial activity of the compound of Formula I, ATCC19606
51 | NC(N)=Nc1nc(-c2cccc(Oc3ccccc3Cl)c2)cs1 [Compound I-94] | 256 µg/mL
52 | CSc1cc2cccc(C)n2c1-c1nc(N=C(N)N)sc1Cl [Compound I-127] | 256 µg/mL
53 | NC(N)=Nc1nc(-c2cccc(N3CCOCC3)c2)cs1 [Compound I-120] | 256 µg/mL
54 | NC(N)=Nc1nc(-c2ccccc2Cl)c[nH]1 [Compound I-36] | 256 µg/mL
55 | O=C(NC1CC1)c1ccc(-c2nccs2)c(-c2nc(N=C3NCCCN3)sc2Br)c1 [Compound I-141] | 256 µg/mL
56 | Cc1oc(N=C(N)N)nc1-c1cccc(C#N)c1-c1cccs1 [Compound I-79] | 256 µg/mL
57 | CSc1cc2ccc(C)cn2c1-c1nc(N=C(N)N)sc1C [Compound I-126] | 256 µg/mL
58 | NC(N)=Nc1nc(-c2ccccc2OCc2ccccc2)cs1 [Compound I-7] | 256 µg/mL

Same assay, conditions: read-out: Antibacterial activity of the compound of Formula I, ATCC19606

Row | MIC | Structure (SMILES)
59 | 256 µg/mL (≈ 969 µM) | NC(N)=Nc1nc(-c2ccc(O)c(CO)c2)cs1 [Compound I-121]
60 | 256 µg/mL (≈ 758 µM) | NC(N)=Nc1nc(-c2c(S(N)(=O)=O)csc2Cl)cs1 [Compound I-118]

System: ATCC25922 strain (Escherichia coli)
Assay: as above
Type: cell-based
Conditions: not given
Excerpt: as §2

Row | Structure (SMILES) | Antibacterial activity of the compound of Formula I, ATCC25922
61 | NC(N)=Nc1nc(-c2cccc(Oc3ccccc3Cl)c2)cs1 [Compound I-94] | 256 µg/mL
62 | CSc1cc2cccc(C)n2c1-c1nc(N=C(N)N)sc1Cl [Compound I-127] | 128 µg/mL
63 | NC(N)=Nc1nc(-c2cccc(N3CCOCC3)c2)cs1 [Compound I-120] | 256 µg/mL
64 | NC(N)=Nc1nc(-c2ccccc2Cl)c[nH]1 [Compound I-36] | 128 µg/mL
65 | O=C(NC1CC1)c1ccc(-c2nccs2)c(-c2nc(N=C3NCCCN3)sc2Br)c1 [Compound I-141] | 256 µg/mL
66 | Cc1oc(N=C(N)N)nc1-c1cccc(C#N)c1-c1cccs1 [Compound I-79] | 256 µg/mL
67 | CSc1cc2ccc(C)cn2c1-c1nc(N=C(N)N)sc1C [Compound I-126] | 256 µg/mL
68 | NC(N)=Nc1nc(-c2ccccc2OCc2ccccc2)cs1 [Compound I-7] | 256 µg/mL

Same assay, conditions: read-out: Antibacterial activity of the compound of Formula I, ATCC25922

Row | MIC | Structure (SMILES)
69 | 256 µg/mL (≈ 969 µM) | NC(N)=Nc1nc(-c2ccc(O)c(CO)c2)cs1 [Compound I-121]
70 | 256 µg/mL (≈ 758 µM) | NC(N)=Nc1nc(-c2c(S(N)(=O)=O)csc2Cl)cs1 [Compound I-118]

System: ATCC9027 strain (Pseudomonas aeruginosa)
Assay: as above
Type: cell-based
Conditions: not given
Excerpt: as §2

Row | Structure (SMILES) | Antibacterial activity of the compound of Formula I, ATCC9027
71 | NC(N)=Nc1nc(-c2cccc(Oc3ccccc3Cl)c2)cs1 [Compound I-94] | 256 µg/mL
72 | CSc1cc2cccc(C)n2c1-c1nc(N=C(N)N)sc1Cl [Compound I-127] | 64 µg/mL
73 | NC(N)=Nc1nc(-c2cccc(N3CCOCC3)c2)cs1 [Compound I-120] | 256 µg/mL
74 | NC(N)=Nc1nc(-c2ccccc2Cl)c[nH]1 [Compound I-36] | 64 µg/mL
75 | O=C(NC1CC1)c1ccc(-c2nccs2)c(-c2nc(N=C3NCCCN3)sc2Br)c1 [Compound I-141] | 256 µg/mL
76 | Cc1oc(N=C(N)N)nc1-c1cccc(C#N)c1-c1cccs1 [Compound I-79] | 256 µg/mL
77 | CSc1cc2ccc(C)cn2c1-c1nc(N=C(N)N)sc1C [Compound I-126] | 256 µg/mL
78 | NC(N)=Nc1nc(-c2ccccc2OCc2ccccc2)cs1 [Compound I-7] | 256 µg/mL

Same assay, conditions: read-out: Antibacterial activity of the compound of Formula I, ATCC9027

Row | MIC | Structure (SMILES)
79 | 256 µg/mL (≈ 969 µM) | NC(N)=Nc1nc(-c2ccc(O)c(CO)c2)cs1 [Compound I-121]
80 | 256 µg/mL (≈ 758 µM) | NC(N)=Nc1nc(-c2c(S(N)(=O)=O)csc2Cl)cs1 [Compound I-118]

— US20260250257A1, “ANTIBACTERIAL AND SYNERGISTIC ACTIVE COMPOUND AND USE THEREOF” (EAST CHINA UNIVERSITY OF SCIENCE AND TECHNOLOGY, priority 2023, published 2026)
